From patent publication US9212130B2, “Heterocyclic derivative and pharmaceutical composition comprising the same” (SHIONOGI & CO., LTD., priority 2010, dated 2015)

Assays:
CYP2D6 = CYP2D6 (Homo sapiens (Human), UniProt P10635); test: CYP inhibition test, dextromethorphan O-demethylation; format: in vitro ADME; conditions: pooled human hepatic microsome; 5 μmol/L dextromethorphan; given as 'five kinds'
Method: (§1) Using commercially available pooled human hepatic microsome, and employing, as markers, 7-ethoxyresorufin O-deethylation (CYP1A2), tolbutamide methyl-hydroxylation (CYP2C9), mephenyloin 4′-hydroxylation (CYP2C19), dextromethorphan O-demethylation (CYP2D6), and terfenedine hydroxylation as typical substrate metabolism reactions of human main five ([…] enzyme forms (CYP1A2, 2C9, 2C19, 2D6, 3A4), an inhibitory degree of each metabolite production amount by a test compound was assessed.
(§2) The reaction conditions were as follows: substrate, 0.5 μmol/L ethoxyresorufin (CYP1A2), 100 μmol/L tolbutamide (CYP2C9), 50 μmol/L S-mephenitoin (CYP2C19), 5 μmol/L dextromethorphan (CYP2D6), 1 μmol/L terfenedine (CYP3A4); reaction time, 15 minutes; reaction temperature, 37° C.; enzyme, pooled human hepatic microsome 0.2 mg protein/mL; test drug concentration, 1.0. 5.0, 10, 20 μmol/L (four points).
(§3) Each five kinds of substrates, human hepatic microsome, or a test drug in 50 mmol/L Hepes buffer as a reaction solution was added to a 96-well plate at the composition as described above. NADPH, as a cofactor was added to initiate metabolism reactions as markers and, after the incubation at 37° C. for 15 minutes, a methanol/acetonitrile=1/1 (v/v) solution was added to stop the reaction. After the centrifugation at 3000 rpm for 15 minutes, resorufin (CYP1A2 metabolite) in the supernatant was quantified by a fluorescent multilabel counter and tributamide hydroxide (CYP2CP metabolite), mephenyloin 4′ hydroxide (CYP2C19 metabolite), […], and terfenadine alcohol (CYP3A4 metabolite) were quantified by LC/MS/MS.
(§4) Addition of only DMSO being a solvent dissolving a drug to a reaction system was adopted as a control (100%), remaining activity (%) was calculated at each concentration of a test drug added as the solution and IC50 was calculated by reverse presumption by a logistic model using a concentration and an inhibition rate.

human P2X3 receptor = human P2X3 receptor (Homo sapiens (Human), UniProt P56373); test: Evaluation of human P2X3 receptor inhibitory activity (ATP-induced Fluo-3 fluorescence, FDSS 3000); format: cell-based; conditions: C6BU-1 cell transfected with human P2X3 receptor gene
human P2X3 receptor, sequence (P56373 whole entry): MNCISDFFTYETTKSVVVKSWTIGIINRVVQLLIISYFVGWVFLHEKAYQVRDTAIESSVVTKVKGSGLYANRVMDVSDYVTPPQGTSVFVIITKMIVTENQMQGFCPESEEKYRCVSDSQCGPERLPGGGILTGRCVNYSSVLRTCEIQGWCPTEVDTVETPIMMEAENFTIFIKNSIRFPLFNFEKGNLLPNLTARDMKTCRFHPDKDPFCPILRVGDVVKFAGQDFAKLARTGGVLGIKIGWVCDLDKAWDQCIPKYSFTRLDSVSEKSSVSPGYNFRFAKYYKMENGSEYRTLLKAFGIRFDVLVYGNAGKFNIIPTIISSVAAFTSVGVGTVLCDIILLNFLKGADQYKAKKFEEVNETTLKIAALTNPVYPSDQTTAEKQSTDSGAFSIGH
Procedure, shortened: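 Human P2X3 inhibition read as ATP-evoked Fluo-3 calcium fluorescence; compound preincubated, then 50 nM ATP solution (concentration as dispensed) added and fluorescence followed 3 min. Response taken as peak-to-baseline fluorescence ratio per well; IC50 derived from concentration–response.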

CYP2C19 = CYP2C19 (Homo sapiens (Human), UniProt P33261); test: CYP inhibition test, mephenyloin 4'-hydroxylation; format: in vitro ADME; conditions: pooled human hepatic microsome; 50 μmol/L S-mephenitoin; given as 'five kinds'
CYP2C19, sequence (P33261 whole entry): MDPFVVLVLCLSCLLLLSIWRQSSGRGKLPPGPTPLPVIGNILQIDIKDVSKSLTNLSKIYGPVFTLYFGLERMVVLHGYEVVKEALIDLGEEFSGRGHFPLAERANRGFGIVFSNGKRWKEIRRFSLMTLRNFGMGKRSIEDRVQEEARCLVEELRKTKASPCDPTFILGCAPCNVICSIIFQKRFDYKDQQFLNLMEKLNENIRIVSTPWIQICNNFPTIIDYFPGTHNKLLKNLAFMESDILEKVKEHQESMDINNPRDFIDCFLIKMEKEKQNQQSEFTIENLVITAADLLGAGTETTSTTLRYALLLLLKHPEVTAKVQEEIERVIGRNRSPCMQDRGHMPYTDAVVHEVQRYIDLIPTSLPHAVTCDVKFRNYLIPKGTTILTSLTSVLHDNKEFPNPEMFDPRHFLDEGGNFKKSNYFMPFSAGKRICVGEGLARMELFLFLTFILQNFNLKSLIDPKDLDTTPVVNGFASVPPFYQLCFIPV
Method: as §1, §2, §3, §4

Solubility test = format: physicochemical; conditions: artificial intestinal juice (phosphate buffer) with 1% DMSO, 25 °C, other biorelevant, kinetic from dmso stock, artificial intestinal juice in pH 8.8, 25 degrees Celsius for 16 hours
Method: The solubility of a compound was determined under a condition in which 1% DMSO was added. 10 mmol/L compound solution was prepared using DMSO, and then 6 μL of the compound solution was added to 594 μL of artificial intestinal juice in […] (to 250 mL of 0.2 mol/L potassium dihydrogen phosphate reagent solution was added 118 mL of 0.2 mol/L NaOH reagent solution and water to provide a final volume of 1000 mL). After standing at 25 degrees Celsius for 16 hours, the mixed solution was filtrated with suction. The filtrate was diluted twice with methanol/water (1/1) and then a concentration in the filtration was measured with HPLC or LC/MS/MS by the absolute calibration method.

CYP2C9 = CYP2C9 (Homo sapiens (Human), UniProt P11712); test: CYP inhibition test, tolbutamide methyl-hydroxylation; format: in vitro ADME; conditions: pooled human hepatic microsome; 100 μmol/L tolbutamide; given as 'five kinds'
CYP2C9, sequence (P11712 whole entry): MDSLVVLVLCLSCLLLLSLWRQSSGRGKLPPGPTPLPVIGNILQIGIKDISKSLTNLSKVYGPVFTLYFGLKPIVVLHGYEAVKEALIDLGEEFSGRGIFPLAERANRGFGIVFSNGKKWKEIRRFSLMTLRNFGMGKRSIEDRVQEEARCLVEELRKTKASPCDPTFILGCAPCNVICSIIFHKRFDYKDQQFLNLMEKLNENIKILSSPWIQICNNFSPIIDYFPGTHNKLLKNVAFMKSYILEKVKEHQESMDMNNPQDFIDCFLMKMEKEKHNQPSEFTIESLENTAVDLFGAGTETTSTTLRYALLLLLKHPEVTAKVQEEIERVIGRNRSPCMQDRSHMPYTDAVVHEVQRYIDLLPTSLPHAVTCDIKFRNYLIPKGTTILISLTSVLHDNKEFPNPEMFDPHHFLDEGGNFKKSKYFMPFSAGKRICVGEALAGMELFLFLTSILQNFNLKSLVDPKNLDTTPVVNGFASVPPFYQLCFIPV
Method: as §1, §2, §3, §4

[1] = Bioavailability (BA) test; format: in vivo; conditions: plasma; Mice or SD rats; oral 0.3 to 30 mg/kg vs intravenous 0.5 to 10 mg/kg; from AUCs
Method: Materials and Methods for Experiment of BA
• (1) Animals: Mice or SD rats were used • (2) Breeding conditions: Mice or SD rats were allowed to freely take solid food and sterilized tap water. • (3) Dose and grouping: orally or intravenously administered at a predetermined dose; grouping was as follows (Dose depends on the compound) Oral administration: 0.3 to 30 mg/kg (n=2 to 3) Intravenous administration: 0.5 to 10 mg/kg (n=2 to 3) • (4) Preparation of dosing solution: for oral administration, in a solution or a suspension state; for intravenous administration, in a solubilized state • (5) Administration method: in oral administration, forcedly administer into ventriculus with oral probe; in intravenous administration, administer from caudal vein with a needle-equipped syringe • (6) Evaluation items: blood was collected over time, and the plasma concentration of drug was measured by LC/MS/MS • (7) Statistical analysis: regarding the transition of the plasma concentration of the present compound, the area under the plasma concentration-time curve (AUC) was calculated by non-linear least squares program WinNonlin (Registered trade name), and the bioavailability (BA) was calculated from the AUCs of the oral administration group and intravenous administration group

[2] = Metabolism stability test (pooled human hepatic microsomes); format: in vitro ADME; conditions: human liver microsomes 0.5 mg protein/mL; 37° C., 30 minutes; 1 mmol/L NADPH; compound concentration 0.5 μmol/L
Method: Using commercially available pooled human hepatic microsomes, a test compound was reacted for a constant time, a remaining rate was calculated by comparing a reacted sample and an unreacted sample, thereby, a degree of metabolism in liver was assessed.
A reaction was performed (oxidative reaction) at 37° C. for 0 minute or 30 minutes in the presence of 1 mmol/L NADPH in 0.2 mL of a buffer (50 mmol/L tris-HCl pH 7.4, 150 mmol/L potassium chloride, 10 mmol/L magnesium chloride) containing 0.5 mg protein/mL of human liver microsomes. After the reaction, 50 μL of the reaction solution was added to 100 μL of a methanol/acetonitrile 1/1 (v/v), mixed and centrifuged at 3000 rpm for 15 minutes. The test compound in the supernatant was quantified by LC/MS/MS, and a remaining amount of the test compound after the reaction was calculated, letting a compound amount at 0 minute reaction time to be 100%.

CYP1A2 = CYP1A2 (Homo sapiens (Human), UniProt P05177); test: CYP inhibition test, 7-ethoxyresorufin O-deethylation; format: in vitro ADME; conditions: pooled human hepatic microsome; 0.5 μmol/L ethoxyresorufin; given as 'five kinds'
CYP1A2, sequence (P05177 whole entry): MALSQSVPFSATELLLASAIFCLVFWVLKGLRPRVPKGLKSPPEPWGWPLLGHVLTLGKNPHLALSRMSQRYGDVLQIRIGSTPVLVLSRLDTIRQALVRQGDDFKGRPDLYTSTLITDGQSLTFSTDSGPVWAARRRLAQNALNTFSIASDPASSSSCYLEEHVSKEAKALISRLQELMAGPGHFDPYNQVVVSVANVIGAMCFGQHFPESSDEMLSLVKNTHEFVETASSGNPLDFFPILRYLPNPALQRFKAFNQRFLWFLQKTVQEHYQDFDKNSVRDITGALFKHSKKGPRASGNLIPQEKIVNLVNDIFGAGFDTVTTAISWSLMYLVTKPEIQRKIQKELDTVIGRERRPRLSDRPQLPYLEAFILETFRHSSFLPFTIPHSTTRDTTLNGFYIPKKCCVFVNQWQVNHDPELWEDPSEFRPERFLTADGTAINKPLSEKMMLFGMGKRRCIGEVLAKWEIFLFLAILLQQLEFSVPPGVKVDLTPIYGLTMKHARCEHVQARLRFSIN
Method: as §1, §2, §3, §4

CYP2D6, sequence (P10635 whole entry): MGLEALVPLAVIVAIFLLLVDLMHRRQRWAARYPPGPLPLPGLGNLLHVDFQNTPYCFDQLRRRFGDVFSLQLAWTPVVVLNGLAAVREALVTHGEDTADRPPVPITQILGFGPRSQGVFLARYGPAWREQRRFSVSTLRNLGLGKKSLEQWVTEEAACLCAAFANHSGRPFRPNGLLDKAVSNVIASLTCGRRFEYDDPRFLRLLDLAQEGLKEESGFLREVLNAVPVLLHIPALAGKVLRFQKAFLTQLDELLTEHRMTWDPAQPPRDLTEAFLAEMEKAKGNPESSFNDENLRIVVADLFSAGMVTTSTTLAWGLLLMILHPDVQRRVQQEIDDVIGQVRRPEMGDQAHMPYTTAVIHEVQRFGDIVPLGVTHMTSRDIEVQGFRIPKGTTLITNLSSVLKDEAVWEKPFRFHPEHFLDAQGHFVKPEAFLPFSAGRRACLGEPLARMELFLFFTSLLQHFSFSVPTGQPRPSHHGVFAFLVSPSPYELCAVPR

CC(C)Oc1ccc(Nc2cc(=O)n(C[C@H](C)C(=O)O)c(=O)n2Cc2ccc(Cl)cc2)cc1Cl [I-100]
IC50 (CYP2D6): > 20 µM | IC50 (human P2X3 receptor): 9 nM | IC50 (CYP2C19): > 20 µM | solubility at 16 h (Solubility test): > 50 µM | IC50 (CYP2C9): > 20 µM | bioavailability [1]: 29.2% | remaining rate [2]: 101% | IC50 (CYP1A2): > 20 µM
